target: T1, BCL6::BCOR (Homo sapiens, UniProt P41182, C67R/C84N/C8Q); experiment: BCL6::BCOR ULight TR-FRET assay; assay type: binding
T1 construct: BCL6 (amino acids 5 to 129, with the following changes to the natural protein); made in house; host or cells: E. coli
From the text: Biological Methods BCL6::BCOR ULight TR-FRET Assay:
Biotinylated BCL6 protein corresponding to BCL6 (amino acids 5 to 129, with the following changes to the natural protein: C8Q, C67R, C84N) is expressed in E. coli with a carboxy-terminal Avi tag (amino acid sequence […]). The BCOR ULight peptide uses a direct carboxy-terminal ULight tag (PerkinElmer). The sequence of the peptide is CRSEIISTAPSSWVVPGP, with the amino terminus acetylated and the ULight tag attached to the cysteine. Compounds are dispensed onto assay plates (Proxiplate 384 PLUS, white, PerkinElmer) using an Access Labcyte Workstation with the Labcyte Echo 55×from a DMSO solution. For the chosen highest assay concentration of 100 μM, 150 nl of compound solution are transferred from a 10 mM DMSO compound stock solution. A series of 11 concentrations is transferred for each compound at which each concentration is fivefold lower than the previous one. DMSO is added such that every well has a total of 150 nl compound solution. 5 μL of 1 nM BCL6 protein in assay buffer (50 mM HEPES pH 7.3; 125 mM NaCl; 1 mM GSH; 0.01% Triton-X 100; 0.03% BSA) are added to the 150 nl of compounds. After 30 minutes incubation time at room temperature, 10 μL of a mix containing BCOR ULight peptide (100 nM final assay concentration) and Streptavidin-Europium (0.75 nM final assay concentration) are added. Plates are kept at room temperature. After 240 minutes incubation time the TR-FRET signal is measured in a PerkinElmer Envision HTS Multilabel Reader using the TR-FRET LANCE Ultra specs of PerkinElmer. Each plate contains negative controls (diluted DMSO instead of test compound; BCOR peptide and Streptavidin Europium mix with BCL6 protein) and positive controls (diluted DMSO instead of test compound; BCOR peptide and Streptavidin-Europium mix without BCL6 protein). Negative and positive control values are used for normalization.

IC50 [nM]	Compound
20	CNC(=O)COc1cc2cc(Nc3nc(N4C[C@H](C(F)(F)F)C[C@H](C(F)(F)F)C4)ncc3Cl)ccc2n(C)c1=O [Compound I-14, 2-{[6-({2-[cis-3,5-bis(trifluoromethyl)piperidin-1-yl]-5-chloropyrimidin-4-yl}amino)-1-methyl-2-oxo-1,2-dihydroquinolin-3-yl]oxy}-N-methyl-acetamide]
6	CNC(=O)COc1cc2cc(Nc3nc(N4CCC(C(=O)N(C)C)CC4)ncc3Cl)ccc2n(C(C)C)c1=O [Compound I-158]
22	CNC(=O)COc1cc2cc(Nc3cc(N4C[C@H](C)C[C@H](C)C4)ncc3Cl)ccc2n(C)c1=O [Compound I-178, 2-{[6-({5-chloro-2-[cis-3,5-dimethylpiperidin-1-yl]pyridin-4-yl}amino)-1-methyl-2-oxo-1,2-dihydroquinolin-3-yl]oxy}-N-methylacetamide]
37	C[C@@H]1C[C@H](C)CN(c2ncc(Cl)c(Nc3ccc4c(c3)cc(OC[S@@+](C)[O-])c(=O)n4C)n2)C1 (single isomer, unassigned) [Compound I-173]
8	CNC(=O)COc1cc2cc(Nc3nc(N4CCC[C@@H](C(=O)N(C)C5CCN(C)CC5)C4)ncc3Cl)ccc2n(C)c1=O [Compound I-170]
21	CCNC(=O)COc1cc2cc(Nc3nc(N4C[C@H](C)C[C@H](C)C4)ncc3Cl)ccc2n(C)c1=O [Compound I-137]
11	CNC(=O)COc1cc2cc(Nc3nc(N4CCC(N5CC6CCC5CC6)CC4)ncc3Cl)ccc2n(C)c1=O [Compound I-59]
6	CNC(=O)COc1cc2cc(Nc3nc(N4CCC(N5C[C@H]6CC[C@@H](C5)O6)CC4)ncc3Cl)ccc2n(C)c1=O [Compound I-57]
62	CNC(=O)COc1cc2cc(Nc3nc(N4CCC(C(F)(F)F)CC4)ncc3Cl)ccc2n(C)c1=O [Compound I-33]
9	CNC(=O)COc1cc2cc(Nc3nc(N4CCC(N5CCC(C)CC5)CC4)ncc3Cl)ccc2n(C)c1=O [Compound I-40]
7	CNC(=O)COc1cc2cc(Nc3nc(N4CCN(C(=O)CN(C)C)CC4)ncc3Cl)ccc2n(C)c1=O [Compound I-18]
6	CNC(=O)COc1cc2cc(Nc3nc(N4CCC5(CC4)CC5)ncc3Cl)ccc2n(C)c1=O [Compound I-31]
5	CNC(=O)COc1cc2cc(Nc3nc(N4CCOCC4)ncc3Cl)ccc2n(C)c1=O [Compound I-54]
39	CN(C)C(=O)COc1cc2cc(Nc3nc(N4CCC(C(=O)N(C)C)CC4)ncc3Cl)ccc2n(C)c1=O [Compound I-171]
10	C#CCNC(=O)COc1cc2cc(Nc3nc(N4CCC(C(=O)N(C)C)CC4)ncc3Cl)ccc2n(C)c1=O [Compound I-175]
108	Cn1c(=O)c(OCC(=O)O)cc2cc(Nc3nc(N4CCC5(CCCCC5)CC4)ncc3Cl)ccc21 [Compound I-111]
10	Cn1c(=O)c(OCC(=O)O)cc2cc(Nc3nc(N4CCC(Nc5ncccn5)CC4)ncc3Cl)ccc21 [Compound I-101]
10	CCNC(=O)C1CCCN(c2ncc(Cl)c(Nc3ccc4c(c3)cc(OCC(=O)O)c(=O)n4C)n2)C1 (centres unmarked) [Compound I-107]
10	CNC(=O)COc1cc2cc(Nc3nc(N4CCC5CN(Cc6ccccc6)CC54)ncc3Cl)ccc2n(C)c1=O (centres unmarked) [Compound I-125]
10	Cn1c(=O)c(OCC(=O)O)cc2cc(Nc3nc(N4CCC5(CC4)OCCCO5)ncc3Cl)ccc21 [Compound I-103]
22	CNC(=O)COc1cc2cc(Nc3nc(N4CCC(C(=O)NCCOCCN)CC4)ncc3Cl)ccc2n(C)c1=O [Compound I-144]
12	CNC(=O)COc1cc2cc(Nc3nc(N4C[C@H](C)C[C@H](C)C4)ncc3Cl)ccc2n(C(C)C)c1=O [Compound I-83]
38	Cn1c(=O)c(OCC(=O)O)cc2cc(Nc3nc(N4C[C@H]5C[C@@H](C4)c4ccccc45)ncc3Cl)ccc21 [Compound I-108]
9	COC(=O)COc1cc2cc(Nc3nc(N4CCC(F)CC4)ncc3Cl)ccc2n(C)c1=O [Compound I-2, methyl 2-[(6-{[5-chloro-2-(4-fluoropiperidin-1-yl)pyrimidin-4-yl]amino}-1-methyl-2-oxo-1,2-dihydro-quinolin-3-yl)oxy]-acetate]
7	CNC(=O)COc1cc2cc(Nc3nc(N4CCN(CCC(=O)O)CC4)ncc3Cl)ccc2n(C)c1=O [Compound I-91]
7	CNC(=O)COc1cc2cc(Nc3nc(N4CCC(N5CCCCCC5)CC4)ncc3Cl)ccc2n(C)c1=O [Compound I-37]
35	CCN1CCN(C2CCN(c3ncc(Cl)c(Nc4ccc5c(c4)cc(OCC(=O)NC)c(=O)n5C)n3)CC2)CC1 [Compound I-38]

IC50 [nM]	Compound
7	CNC(=O)COc1cc2cc(Nc3nc(N4CCCC(CCCCN5CCCC5)C4)ncc3Cl)ccc2n(C)c1=O (centres unmarked) [Compound I-123]
6	CNC(=O)COc1cc2cc(Nc3nc(N4CCC(Cl)CC4)ncc3Cl)ccc2n(C)c1=O [Compound I-34]
9	CNC(=O)COc1cc2cc(Nc3nc(N4C[C@H](C)C[C@H](C)C4)ncc3F)ccc2n(C)c1=O [Compound I-23]
7	CNC(=O)COc1cc2cc(Nc3nc(N4CCC[C@@H](C)C4)ncc3Cl)ccc2n(C)c1=O [Compound I-70]
7	CCOC1CCCN(c2ncc(Cl)c(Nc3ccc4c(c3)cc(OCC(=O)O)c(=O)n4C)n2)C1 (centres unmarked) [Compound I-112]
4	CNC(=O)COc1cc2cc(Nc3nc(N4CCC(F)(F)CC4)ncc3Cl)ccc2n(C)c1=O [Compound I-26]
16	C[C@@H]1C[C@H](C)CN(c2ncc(Cl)c(Nc3ccc4c(c3)cc(OCC(=O)NCCO)c(=O)n4C)n2)C1 [Compound I-135]
13	CNC(=O)COc1cc2cc(Nc3nc(N4CCCN(C)CC4)ncc3Cl)ccc2n(C)c1=O [Compound I-46]
4	CCn1c(=O)c(OCC(=O)NC)cc2cc(Nc3nc(N4CCC(C(=O)O)CC4)ncc3Cl)ccc21 [Compound I-73]
7	CCN(CC)CCCCC1CCCN(c2ncc(Cl)c(Nc3ccc4c(c3)cc(OCC(=O)NC)c(=O)n4C)n2)C1 (centres unmarked) [Compound I-126]
7	CNC(=O)COc1cc2cc(Nc3nc(N4C[C@@H](C)C[C@H](C)C4)ncc3Cl)ccc2n(C)c1=O (single isomer, unassigned) [Compound I-6]
22	C[C@@H]1C[C@H](C)CN(c2ncc(Cl)c(Nc3ccc4c(c3)cc(/C=C/C(=O)O)c(=O)n4C)n2)C1 [Compound I-165]
6	CNC(=O)COc1cc2cc(Nc3nc(N4CCO[C@@H](C)C4)ncc3Cl)ccc2n(C)c1=O [Compound I-51]
5	CNC(=O)COc1cc2cc(Nc3nc(N4CCc5cnccc5C4)ncc3Cl)ccc2n(C)c1=O [Compound I-47]
529	C[C@@H]1C[C@H](C)CN(c2ncc(Cl)c(Nc3ccc4c(c3)cc(OCC(=O)NCCN(C)C)c(=O)n4C)n2)C1 [Compound I-138]
11	Cn1c(=O)c(OCC(=O)O)cc2cc(Nc3nc(N4CCC(N5CCOCC5)C4)ncc3Cl)ccc21 (centres unmarked) [Compound I-120]
5	CNC(=O)COc1cc2cc(Nc3nc(N4CCC(C#N)CC4)ncc3Cl)ccc2n(C)c1=O [Compound I-30]
9	CNC(=O)COc1cc2cc(Nc3nc(N4CCCC(CN5CCCCC5)C4)ncc3Cl)ccc2n(C)c1=O (centres unmarked) [Compound I-127]
9	CC1CN(c2ncc(Cl)c(Nc3ccc4c(c3)cc(OCC(=O)O)c(=O)n4C)n2)CCS1 (centres unmarked) [Compound I-114]
7	CNC(=O)COc1cc2cc(Nc3nc(N4CCN(CCOC)CC4)ncc3Cl)ccc2n(C)c1=O [Compound I-3, 2-{[6-({5-chloro-2-[4-(2-methoxyethyl)piperazin-1-yl]pyrimidin-4-yl}amino)-1-methyl-2-oxo-1,2-dihydroquinolin-3-yl]oxy}-N-methylacetamide]
8	CNC(=O)COc1cc2cc(Nc3nc(N4CCC(F)(F)CC4)ncc3Cl)ccc2n(CC2CC2)c1=O [Compound I-89]
12	CNC(=O)COc1cc2cc(Nc3nc(N4C[C@H](C)C[C@@H](C)C4)ncc3Cl)ccc2n(C)c1=O (single isomer, unassigned) [Compound I-5]
3	CNC(=O)COc1cc2cc(Nc3nc(N4CCC(C(=O)O)CC4)ncc3Cl)ccc2n(CC2CC2)c1=O [Compound I-86]
85	CNC(=O)COc1cc2cc(Nc3nc(N4C[C@H](C)C[C@H](C)C4)ncc3Cl)ccc2n(CCN(C)C)c1=O [Compound I-159]
6	CNC(=O)COc1cc2cc(Nc3nc(N4CCC(F)CC4)ncc3Cl)ccc2n(CC2CC2)c1=O [Compound I-88]
5	CNC(=O)COc1cc2cc(Nc3nc(N4CC(C)C(C(=O)N(C)C)C(C)C4)ncc3Cl)ccc2n(C)c1=O (centres unmarked) [Compound I-13, 1-[5-chloro-4-({1-methyl-3-[(methylcarbamoyl)-methoxy]-2-oxo-1,2-dihydroquinolin-6-yl}amino)pyrimidin-2-yl]-N,N,3,5-tetramethylpiperidine-4-carboxamide]
